From the supplement of paper PMC8633005

Legend:
[1] = test system: FM-MEL-2; settings: 72 h
Procedure: (§1)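 Validation dose-response testing of selected drugs on NRAS-mutant melanoma patient-derived cells, run in 2D culture and in 3D spheroids (ultra-low attachment plates), in triplicate per concentration. Viability was read by CellTiter-Glo after 72 h. EC50 came from Breeze curve fitting, and DSS was calculated from the curve.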

[2] = test system: FM-MEL-6; settings: 72 h
Procedure: as §1

[3] = test system: FM-MEL-3; settings: 72 h
Procedure: as §1

[4] = test system: FM-MEL-2; assay: drug sensitivity score (DSS) (DSS (unitless, 0-50 scale)); higher = more sensitive (stronger viability inhibition); extreme values may be limits of the assay; settings: 72 h; culture: 2D
Outline: (§2)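 A 527-compound oncology library was screened in 384-well plates against melanoma cell lines and patient-derived melanoma cultures grown in 2D, the cultures at 1000–1500 cells per well. Each compound, in DMSO or water, was applied at five concentrations over a 10,000-fold range and incubated for 72 h at 37 °C before CellTiter-Glo luminescence readout of viability. A drug sensitivity score, a modified area-under-curve measure, was calculated from curves fitted in the in-house Breeze software.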

[5] = test system: SK-MEL-2; assay: as above; settings: 72 h; culture: 2D
Outline: as §2

[6] = test system: WM165; assay: as above; settings: 72 h; culture: 2D
Outline: as §2

[7] = test system: FM-MEL-6; assay: as above; settings: 72 h; culture: 2D
Outline: as §2

[8] = test system: Bowes; assay: as above; settings: 72 h; culture: 2D
Outline: as §2

[9] = test system: FM-MEL-3; assay: as above; settings: 72 h; culture: 2D
Outline: as §2

[10] = test system: WM852; assay: as above; settings: 72 h; culture: 2D
Outline: as §2

[11] = test system: SK-MEL-28; assay: as above; settings: 72 h; culture: 2D
Outline: as §2

[12] = test system: FM-MEL-2; assay: drug sensitivity score (DSS) (DSS (unitless)); higher = more sensitive; settings: 72 h
Procedure: as §1

[13] = test system: FM-MEL-6; assay: as above; settings: 72 h
Procedure: as §1

[14] = test system: FM-MEL-3; assay: as above; settings: 72 h
Procedure: as §1

COc1cccc(OCCCN)c1-c1cc(Nc2cnc(C#N)cn2)n[nH]1 [Prexasertib]
EC50 (cell viability) ([1]; culture: 2D): 851 nM | EC50 (cell viability) ([1]; culture: 3D spheroid): 2030 nM | EC50 (cell viability) ([2]; culture: 2D): 137 nM | EC50 (cell viability) ([2]; culture: 3D spheroid): 6570 nM | EC50 (cell viability) ([3]; culture: 2D): 52 nM | EC50 (cell viability) ([3]; culture: 3D spheroid): 48.7 nM | drug sensitivity score [4]: 10.5 | drug sensitivity score [5]: 28.7 | drug sensitivity score [6]: 24.1 | drug sensitivity score [7]: 26.6 | drug sensitivity score [8]: 28.6 | drug sensitivity score [9]: 19.1 | drug sensitivity score [10]: 27.7 | drug sensitivity score [11]: 8.6 | drug sensitivity score ([12]; culture: 2D): 7.7 | drug sensitivity score ([12]; culture: 3D spheroid): 4.9 | drug sensitivity score ([13]; culture: 2D): 6.4 | drug sensitivity score ([13]; culture: 3D spheroid): 0.8 | drug sensitivity score ([14]; culture: 2D): 21.1 | drug sensitivity score ([14]; culture: 3D spheroid): 25.6

CC(C)(C)c1cc(NC(=O)Nc2ccc(-c3cn4c(n3)sc3cc(OCCN5CCOCC5)ccc34)cc2)no1 [Quizartinib]
EC50 (cell viability) ([1]; culture: 2D): 95.7 nM | EC50 (cell viability) ([1]; culture: 3D spheroid): 45.3 nM | EC50 (cell viability) ([2]; culture: 2D): > 1000 nM | EC50 (cell viability) ([2]; culture: 3D spheroid): > 1000 nM | EC50 (cell viability) ([3]; culture: 2D): > 1000 nM | EC50 (cell viability) ([3]; culture: 3D spheroid): > 1000 nM | drug sensitivity score [4]: 10.5 | drug sensitivity score [5]: 0 | drug sensitivity score [6]: 1 | drug sensitivity score [7]: 0 | drug sensitivity score [8]: 1.2 | drug sensitivity score [9]: 5.1 | drug sensitivity score [10]: 0.3 | drug sensitivity score [11]: 0 | drug sensitivity score ([12]; culture: 2D): 10.5 | drug sensitivity score ([12]; culture: 3D spheroid): 14.5 | drug sensitivity score ([13]; culture: 2D): 0 | drug sensitivity score ([13]; culture: 3D spheroid): 0 | drug sensitivity score ([14]; culture: 2D): 0 | drug sensitivity score ([14]; culture: 3D spheroid): 0

COc1cc(OC)c(/C=C/S(=O)(=O)Cc2ccc(OC)c(NCC(=O)O)c2)c(OC)c1 [Rigosertib]
EC50 (cell viability) ([1]; culture: 2D): 44.2 nM | EC50 (cell viability) ([1]; culture: 3D spheroid): 110 nM | EC50 (cell viability) ([2]; culture: 2D): 56.2 nM | EC50 (cell viability) ([2]; culture: 3D spheroid): 1540 nM | EC50 (cell viability) ([3]; culture: 2D): 42 nM | EC50 (cell viability) ([3]; culture: 3D spheroid): 39.2 nM | drug sensitivity score [4]: 7.6 | drug sensitivity score [5]: 17 | drug sensitivity score [6]: 21.4 | drug sensitivity score [7]: 18.6 | drug sensitivity score [8]: 19.9 | drug sensitivity score [9]: 15.5 | drug sensitivity score [10]: 22.6 | drug sensitivity score [11]: 9.5 | drug sensitivity score ([12]; culture: 2D): 10.8 | drug sensitivity score ([12]; culture: 3D spheroid): 10.5 | drug sensitivity score ([13]; culture: 2D): 8.6 | drug sensitivity score ([13]; culture: 3D spheroid): 1.3 | drug sensitivity score ([14]; culture: 2D): 13.2 | drug sensitivity score ([14]; culture: 3D spheroid): 16.9

Cn1cnc2c(F)c(Nc3ccc(Br)cc3Cl)c(C(=O)NOCCO)cc21 [Selumetinib]
EC50 (cell viability) ([1]; culture: 2D): 75.6 nM | EC50 (cell viability) ([1]; culture: 3D spheroid): 71 nM | EC50 (cell viability) ([2]; culture: 2D): 83.6 nM | EC50 (cell viability) ([2]; culture: 3D spheroid): 56.1 nM | EC50 (cell viability) ([3]; culture: 2D): 78.9 nM | EC50 (cell viability) ([3]; culture: 3D spheroid): 56.4 nM | drug sensitivity score [4]: 16.5 | drug sensitivity score [5]: 13.2 | drug sensitivity score [6]: 17.3 | drug sensitivity score [7]: 13 | drug sensitivity score [8]: 0 | drug sensitivity score [9]: 24.9 | drug sensitivity score [10]: 4.9 | drug sensitivity score [11]: 18.2 | drug sensitivity score ([12]; culture: 2D): 19.7 | drug sensitivity score ([12]; culture: 3D spheroid): 20.3 | drug sensitivity score ([13]; culture: 2D): 16.3 | drug sensitivity score ([13]; culture: 3D spheroid): 21.9 | drug sensitivity score ([14]; culture: 2D): 23.8 | drug sensitivity score ([14]; culture: 3D spheroid): 27.1

CC(=O)Nc1cccc(-n2c(=O)n(C3CC3)c(=O)c3c(Nc4ccc(I)cc4F)n(C)c(=O)c(C)c32)c1 [Trametinib]
EC50 (cell viability) ([1]; culture: 2D): 0.6 nM | EC50 (cell viability) ([1]; culture: 3D spheroid): 0.5 nM | EC50 (cell viability) ([2]; culture: 2D): 1.3 nM | EC50 (cell viability) ([2]; culture: 3D spheroid): 0.5 nM | EC50 (cell viability) ([3]; culture: 2D): 0.8 nM | EC50 (cell viability) ([3]; culture: 3D spheroid): 0.2 nM | drug sensitivity score [4]: 18.1 | drug sensitivity score [5]: 17.9 | drug sensitivity score [6]: 21.2 | drug sensitivity score [7]: 15.6 | drug sensitivity score [8]: 1.8 | drug sensitivity score [9]: 26.1 | drug sensitivity score [10]: 6.8 | drug sensitivity score [11]: 21.1 | drug sensitivity score ([12]; culture: 2D): 22.3 | drug sensitivity score ([12]; culture: 3D spheroid): 23.3 | drug sensitivity score ([13]; culture: 2D): 17.1 | drug sensitivity score ([13]; culture: 3D spheroid): 24 | drug sensitivity score ([14]; culture: 2D): 27.6 | drug sensitivity score ([14]; culture: 3D spheroid): 34.6

CC(C)Nc1cc(-c2c[nH]c(C(=O)N[C@H](CO)c3cccc(Cl)c3)c2)c(Cl)cn1 [Ulixertinib]
EC50 (cell viability) ([1]; culture: 2D): 127 nM | EC50 (cell viability) ([1]; culture: 3D spheroid): 76 nM | EC50 (cell viability) ([2]; culture: 2D): 236 nM | EC50 (cell viability) ([2]; culture: 3D spheroid): 125 nM | EC50 (cell viability) ([3]; culture: 2D): 279 nM | EC50 (cell viability) ([3]; culture: 3D spheroid): 83.1 nM | drug sensitivity score [4]: 15 | drug sensitivity score [5]: 9.7 | drug sensitivity score [6]: 12.6 | drug sensitivity score [7]: 7.6 | drug sensitivity score [8]: 4.2 | drug sensitivity score [9]: 17.1 | drug sensitivity score [10]: 4.1 | drug sensitivity score [11]: 13.3 | drug sensitivity score ([12]; culture: 2D): 16.5 | drug sensitivity score ([12]; culture: 3D spheroid): 19.4 | drug sensitivity score ([13]; culture: 2D): 8.1 | drug sensitivity score ([13]; culture: 3D spheroid): 15.3 | drug sensitivity score ([14]; culture: 2D): 17 | drug sensitivity score ([14]; culture: 3D spheroid): 25.2
